The IC50 is the concentration needed to halve the response being measured. A high value points to weaker potency in that assay.

This passage reports IC50 results from ChEMBL document CHEMBL1667783 (Bioorg Med Chem Lett, 2011).

Holding throughout (assay type): functional, cell-based
The test system of one test is HeLa. Description: Cytotoxicity against human HeLa cells after 48 hrs by MTT assay.
Another test relates to HepG2. The test is described as follows: Cytotoxicity against human HepG2 cells after 48 hrs by MTT assay. The following applies: HepG2, 48 h.
The next test has as its system MCF7. Description: Cytotoxicity against human MCF7 cells after 48 hrs by MTT assay. To be noted: MCF7, 48 h. For orientation: Tetrazolium assays rely on reduction of a dye to a coloured formazan, in cell work by metabolically active cells.
The subject of another test is A-431. The test is described as follows: Cytotoxicity against human A431 cells after 48 hrs by MTT assay. The following applies: A-431, 48 h.
The test system of another test is A549. Description: Cytotoxicity against human A549 cells after 48 hrs by MTT assay. To be noted: A549, 48 h.
In the next test the test system is HEp-2. The test is described as follows: Cytotoxicity against human Hep2 cells after 48 hrs by MTT assay. To be noted: HEp-2, 48 h.
Another test deals with SK-OV-3. The test is described as follows: Cytotoxicity against human SKOV3 cells after 48 hrs by MTT assay. The following applies: SK-OV-3, 48 h.
For the next test, the system named is U-251. Description: Cytotoxicity against human U251 cells after 48 hrs by MTT assay. To be noted: U-251, 48 h.

`COc1cc(/C=C/C(=O)/C=C(O)/C=C/c2ccc(-n3ccc4ccccc43)c(OC)c2)ccc1-n1ccc2ccccc21`: the IC50 in the test with HeLa, in the test on HepG2, with MCF7, in the test on A-431, in the test with A549 and in the test on HEp-2 was greater than 100 µM in each case. The 50% inhibitory concentration (IC50) in the test on SK-OV-3 was greater than 100 µM.
`COc1cc(/C=C/C(=O)/C=C(O)/C=C/c2ccc(-n3ccnc3)c(OC)c2)ccc1-n1ccnc1`: the IC50 in the test with HeLa was 45.4 µM; in the test with HepG2, 82.5 µM; in the test with MCF7, greater than 100 µM; in the test with U-251, 22 µM; in the test with A-431, 16.8 µM; in the test on A549, greater than 100 µM. In addition, the figures for the IC50 in the test on HEp-2 and with SK-OV-3 were greater than 100 µM and 66.9 µM, respectively.
For the compound `COc1cc(/C=C/C(=O)/C=C(O)/C=C/c2ccc(-n3cccn3)c(OC)c2)ccc1-n1cccn1`, the IC50 with HeLa, with HepG2, in the test on MCF7, in the test with A-431, with A549 and in the test on HEp-2 was greater than 100 µM in each case. In the test with SK-OV-3, this compound yielded an IC50 greater than 100 µM.
Regarding `COc1cc(/C=C/C(=O)/C=C(O)/C=C/c2ccc(-n3cnc4ccccc43)c(OC)c2)ccc1-n1cnc2ccccc21`, the IC50 in the test on HeLa, in the test on HepG2, in the test with MCF7, in the test on A-431, in the test with A549 and in the test with HEp-2 was greater than 100 µM throughout. Moreover, in the test on SK-OV-3, the IC50 is greater than 100 µM.
Take `COc1cc(/C=C/C(=O)/C=C(O)/C=C/c2ccc(I)c(OC)c2)ccc1I`: the IC50 in the test on HeLa, with HepG2, in the test on MCF7, in the test on U-251, with A-431 and in the test on A549 was greater than 100 µM throughout. The IC50 with HEp-2 and with SK-OV-3 was greater than 100 µM each time.
With `COc1cc(/C=C/C(=O)/C=C(O)/C=C/c2ccc(Br)c(OC)c2)ccc1Br`, the IC50 with HeLa was greater than 100 µM; in the test on HepG2, greater than 100 µM; in the test with MCF7, greater than 100 µM; in the test with U-251, 84.8 µM; in the test with A-431 it was 55.9 µM; with A549, greater than 100 µM. Also, the IC50 in the test on HEp-2 and with SK-OV-3 was greater than 100 µM in each case.
As for `COc1cc(/C=C/C(=O)/C=C(O)/C=C/c2ccc(N)c(OC)c2)ccc1N`, the half-inhibitory concentration (IC50) in the test with HeLa was greater than 100 µM; in the test on HepG2, greater than 100 µM; in the test with MCF7, greater than 100 µM; in the test with U-251, 24.5 µM; in the test with A-431, 15.8 µM; with A549 it was greater than 100 µM. Moreover, the IC50 in the test with HEp-2 and with SK-OV-3 was greater than 100 µM each time.
As to `COc1cc(/C=C/C(=O)/C=C(O)/C=C/c2ccc(NC(C)=O)c(OC)c2)ccc1NC(C)=O`, the half-maximal inhibitory concentration (IC50) in the test with HeLa is 37.1 µM; in the test on HepG2, 71.6 µM; in the test on MCF7 it was greater than 100 µM; in the test on U-251, 7.1 µM; in the test with A-431 it was 7.2 µM; in the test with A549 it was greater than 100 µM. For the same compound, the IC50 with HEp-2 was greater than 100 µM; with SK-OV-3, 55.5 µM.
As for `CNc1ccc(/C=C/C(=O)/C=C(O)/C=C/c2ccc(NC)c(OC)c2)cc1OC`, the IC50 in the test on HeLa, in the test on HepG2, in the test with MCF7, in the test with U-251, with A-431 and in the test with A549 was greater than 100 µM each time. Further, the 50% inhibitory concentration (IC50) in the test on HEp-2 and in the test with SK-OV-3 was greater than 100 µM throughout.
On to `COc1cc(/C=C/C(=O)/C=C(O)/C=C/c2ccc(C(N)=O)c(OC)c2)ccc1C(N)=O`, for which the IC50 is 23.8 µM in the test on HeLa; 43.6 µM in the test with HepG2; 49.2 µM in the test with MCF7; 7.7 µM in the test on U-251; 9.4 µM in the test on A-431; greater than 100 µM in the test on A549. For the same compound, the IC50 is greater than 100 µM in the test on HEp-2 and 38.3 µM in the test on SK-OV-3.
As to `COc1cc(/C=C/C(=O)CC(=O)/C=C/c2ccc(O)c(OC)c2)ccc1O` [CURCUMIN], the half-maximal inhibitory concentration (IC50) turned out to be 27.4 µM in the test with HeLa; 31.6 µM in the test on HepG2; 13.8 µM in the test with U-251; 13.8 µM in the test with A-431; 42.6 µM in the test on A549; 56.9 µM in the test on HEp-2. Moreover, the IC50 with SK-OV-3 came out at 37.7 µM.
